Results reported in PubChem BioAssay (NCI).
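Method: 48-hour compound exposure of cells in 96-well plates, five concentrations, linear interpolation of endpoints. GI50 marks 50% less growth. Definition used: TGI = concentration required for complete inhibition of growth.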

What was measured:
Assay in all cases: growth of human tumour cells (NCI), 48 h
[1] = test system: MDA-N
[2] = test system: RXF-631 renal
[3] = test system: DLD-1 colon
[4] = test system: M19-MEL melanoma
[5] = test system: XF 498 CNS
[6] = test system: DMS 114 small cell lung
[7] = test system: HOP-18 NSCLC

SMILES: Nc1ncnc2c1ncn2C1OC(C(=O)OCCO)C(O)C1O (stereo not drawn)
- TGI [1]: > 100 µM

SMILES: CCOc1cc[n+](C(=C=[N-])C#N)cc1
- TGI [2]: > 100 µM
- TGI [3]: > 100 µM
- TGI [4]: > 100 µM
- TGI [5]: > 100 µM
- TGI [6]: > 100 µM

SMILES: OCC(O)C(OC1OC(CO)C(O)C(O)C1O)c1nn(-c2ccc(Cl)cc2)c2nc3cc(Cl)ccc3nc12 (stereo not drawn)
- TGI [2]: > 100 µM
- TGI [3]: > 100 µM
- TGI [4]: > 100 µM
- TGI [5]: > 100 µM
- TGI [6]: > 100 µM

SMILES: O=C(O)CSc1nnc2c3ccccc3c3ccccc3c2n1
- TGI [1]: > 100 µM

SMILES: Cc1ccc(SSCCCCS(=O)O)cc1
- TGI [7]: > 100 µM
- TGI [2]: 77.6 µM
- TGI [3]: > 100 µM
- TGI [4]: 64.5 µM
- TGI [5]: 32 µM
- TGI [6]: 41.9 µM

SMILES: C(=NCCN=Cc1cccc2ccccc12)c1cccc2ccccc12
- TGI [7]: > 100 µM
- TGI [3]: > 100 µM
- TGI [4]: > 100 µM
- TGI [5]: > 100 µM
- TGI [6]: > 100 µM

SMILES: CC(=O)Nc1ccc(OCC(O)CO)cc1 (stereo not drawn)
- TGI [7]: > 100 µM
- TGI [3]: 54.1 µM
- TGI [4]: > 100 µM
- TGI [5]: > 100 µM

SMILES: CCOc1ccccc1NC(=O)C(=O)c1c(O)c2ccc(O)cc2oc1=O
- TGI [7]: > 100 µM
- TGI [2]: > 100 µM
- TGI [3]: > 100 µM
- TGI [4]: > 100 µM

SMILES: O=C1OC(=O)C2C1C1C(c3ccccc3)=C(c3ccccc3)C2(O)C2C(=O)OC(=O)C12 (stereo not drawn)
- TGI [3]: > 100 µM
- TGI [4]: > 100 µM
- TGI [6]: > 100 µM

SMILES: O=C1CC2OCC=C3CN4CCC56c7ccccc7N1C5C2C3CC46 (stereo not drawn) (tested in a mixture with another compound)
- GI50 [1]: > 50 µg/mL
- TGI [1]: > 50 µg/mL

SMILES: CC(C)CC1NC(=O)C(C(C)C)NC(=O)CC(C)COC(=O)C(CC(C)C)N(C)C(=O)C(C(C)C)NC(=O)C(C(C)C)OC1=O (stereo not drawn)
- TGI [1]: > 50 µM

SMILES: O=S1Cc2ccccc2CSS1 (stereo not drawn)
- TGI [7]: 89.1 µM
- TGI [2]: 48.5 µM
- TGI [3]: 41.1 µM
- TGI [4]: 44.9 µM
- TGI [5]: 34 µM
- TGI [6]: 34.6 µM

SMILES: CC1CCC2[C@@H](C)COC3O[C@]4(C)CCC1C32OO4 (stereo partly drawn)
- TGI [7]: > 100 µM
- TGI [3]: > 100 µM
- TGI [6]: > 100 µM

SMILES: C/C(=N\NS(=O)(=O)c1ccccc1)c1ccc[n+]([O-])n1
- TGI [7]: > 100 µM
- TGI [2]: > 100 µM
- TGI [3]: > 100 µM
- TGI [4]: > 100 µM
- TGI [6]: > 100 µM

SMILES: O=C(OCc1ccccc1)c1ccccc1-c1c2ccc(=O)cc-2oc2cc(OCc3ccccc3)ccc12
- TGI [3]: 39.1 µM
- TGI [4]: > 100 µM
- TGI [5]: 33.6 µM

SMILES: Cc1c(C(=O)Nc2ccc(Cl)cc2)nc(N)nc1-c1cccc(Cl)c1
- TGI [7]: > 100 µM
- TGI [2]: > 100 µM
- TGI [3]: > 100 µM
- TGI [4]: > 100 µM
- TGI [6]: > 100 µM

SMILES: CC(C)Cn1cnc2c(SCc3ccccn3)nc(N)nc21
- TGI [1]: > 100 µM

SMILES: C=C1C(OCCO)OC2O[C@]3(C)CCC4[C@H](C)CCC1C24OO3 (stereo partly drawn)
- GI50 [1]: 14.8 µM
- TGI [1]: 87.9 µM

SMILES: CCCC(CCC)C(=O)O
- TGI [1]: > 100 µM

SMILES: CC(=O)N1CCN(C=S)CC1
- TGI [2]: > 100 µM
- TGI [3]: > 100 µM
- TGI [4]: > 100 µM
- TGI [5]: > 100 µM
- TGI [6]: > 100 µM

SMILES: N#CC12CC3(CCC1CCC1(C2)OCCO1)OCCO3 (stereo not drawn)
- TGI [7]: > 100 µM
- TGI [2]: > 100 µM
- TGI [3]: > 100 µM
- TGI [4]: > 100 µM
- TGI [5]: > 100 µM
- TGI [6]: > 100 µM

SMILES: CN(C)c1ccc(/C=N/NC(=O)c2cnc3ccccc3c2)cc1
- TGI [1]: > 100 µM

SMILES: CCC12C=CCN3CCC4(C(=C(C(=O)OC)C1)Nc1ccccc14)[C@H]32 (stereo partly drawn)
- TGI [7]: > 100 µM
- TGI [3]: > 100 µM
- TGI [4]: > 100 µM
- TGI [6]: 49.5 µM

SMILES: CCC(=O)OCN1C(=O)C=CC1=O
- TGI [1]: 31.4 µM

SMILES: CC(=O)Nc1ccccc1S(=O)c1ccccc1 (stereo not drawn)
- TGI [7]: > 100 µM
- TGI [2]: > 100 µM
- TGI [3]: > 100 µM
- TGI [4]: > 100 µM
- TGI [5]: > 100 µM
- TGI [6]: > 100 µM

SMILES: N#CC(CC(=O)O)=C(c1ccccc1)c1ccccc1
- TGI [1]: > 100 µM

SMILES: CC(=O)Nc1cc(CN2CCCCC2)c(O)c2ncccc12
- TGI [1]: > 100 µM

SMILES: Nc1ncnc2c1ncn2COC/C=C/I
- TGI [7]: > 100 µM
- TGI [2]: > 100 µM
- TGI [3]: > 100 µM
- TGI [4]: > 100 µM
- TGI [5]: > 100 µM
- TGI [6]: > 100 µM

SMILES: C=C1CC(CC(=O)C(C)CC2CC(=C)C(=O)O2)OC1=O (stereo not drawn)
- TGI [7]: 47.3 µM
- TGI [2]: > 100 µM
- TGI [3]: 30.4 µM
- TGI [4]: 30.3 µM
- TGI [5]: 43.3 µM
- TGI [6]: 39 µM

SMILES: COc1ccc(S(=O)(=O)N/N=C/CN2C(=O)c3ccccc3C2=O)cc1
- TGI [3]: > 100 µM
- TGI [4]: > 100 µM
- TGI [5]: > 100 µM

SMILES: CCCCCC/C(CC(=O)CCC(=O)NCCc1ccccc1)=N\NC(=O)c1ccc2ccccc2c1O
- TGI [7]: 63.9 µM
- TGI [2]: > 100 µM
- TGI [3]: > 100 µM
- TGI [4]: 88.4 µM
- TGI [5]: > 100 µM

SMILES: ClCCCN1CCCCC1CCl (stereo not drawn)
- TGI [7]: > 100 µM
- TGI [3]: > 100 µM
- TGI [4]: > 100 µM
- TGI [6]: > 100 µM

SMILES: COc1ccc(-c2cc(=O)c3cccnc3[nH]2)cc1
- GI50 [1]: 20.8 µM
- TGI [1]: 78.3 µM

SMILES: N#CC1([N+](=O)[O-])C=C1c1ccccc1 (stereo not drawn)
- TGI [2]: > 100 µM
- TGI [3]: > 100 µM
- TGI [4]: > 100 µM
- TGI [6]: > 100 µM

SMILES: N#CCCn1c(CCC(=O)Nc2ccc(Cl)cc2Cl)n[nH]c1=S
- TGI [2]: > 100 µM
- TGI [3]: > 100 µM
- TGI [4]: > 100 µM
- TGI [5]: > 100 µM
- TGI [6]: > 100 µM

SMILES: NC(C(=O)O)c1ccc(C(=O)O)cc1 (stereo not drawn)
- TGI [2]: > 100 µM
- TGI [3]: > 100 µM
- TGI [4]: > 100 µM
- TGI [5]: > 100 µM
- TGI [6]: > 100 µM

SMILES: CC1=C(C(=O)NCc2ccccc2)C(c2ccccc2O)C(C(=O)NCc2ccccc2)=C(C)N1
- TGI [7]: 60.1 µM
- TGI [3]: 36 µM
- TGI [4]: 35.7 µM
- TGI [5]: 31.2 µM
- TGI [6]: 35.7 µM

SMILES: CC(=O)CC(=O)ON(C)C(=O)Cc1ccccc1
- TGI [3]: > 100 µM
- TGI [4]: > 100 µM
- TGI [5]: > 100 µM
- TGI [6]: > 100 µM

SMILES: CCN(CC)c1ccc(N=C2C=CC(=C(C#N)C#N)c3ccccc32)c(C)c1
- TGI [7]: 10.3 µM
- TGI [3]: 6.5 µM
- TGI [4]: 5.77 µM
- TGI [5]: 2.89 µM

SMILES: CCCCCCC(=O)CC(=O)C(=O)Nc1ccccc1C
- TGI [7]: > 100 µM
- TGI [2]: > 100 µM
- TGI [3]: > 100 µM
- TGI [4]: > 100 µM
- TGI [5]: > 100 µM
- TGI [6]: > 100 µM

SMILES: NCCNc1ncnc2ccc(Cl)cc12
- TGI [1]: > 100 µM

SMILES: Cc1ccc(NC(=O)CC2C(=O)Nc3ccccc3S2(=O)=O)cc1C (stereo not drawn)
- TGI [2]: > 100 µM
- TGI [3]: > 100 µM
- TGI [4]: > 100 µM
- TGI [5]: > 100 µM
- TGI [6]: > 100 µM
